# Molecular target: T1, recombinant human Meningioma Expressed Antigen 5 (MGEA5), also referred to as O-GcNAcase (OGA) (Homo sapiens, UniProt O60502)
# T1 construct: Full length OGA enzyme was purchased at OnGene (cat #TP322411); purchased OnGene (so in the source)
# T1 sequence (O60502 1-916): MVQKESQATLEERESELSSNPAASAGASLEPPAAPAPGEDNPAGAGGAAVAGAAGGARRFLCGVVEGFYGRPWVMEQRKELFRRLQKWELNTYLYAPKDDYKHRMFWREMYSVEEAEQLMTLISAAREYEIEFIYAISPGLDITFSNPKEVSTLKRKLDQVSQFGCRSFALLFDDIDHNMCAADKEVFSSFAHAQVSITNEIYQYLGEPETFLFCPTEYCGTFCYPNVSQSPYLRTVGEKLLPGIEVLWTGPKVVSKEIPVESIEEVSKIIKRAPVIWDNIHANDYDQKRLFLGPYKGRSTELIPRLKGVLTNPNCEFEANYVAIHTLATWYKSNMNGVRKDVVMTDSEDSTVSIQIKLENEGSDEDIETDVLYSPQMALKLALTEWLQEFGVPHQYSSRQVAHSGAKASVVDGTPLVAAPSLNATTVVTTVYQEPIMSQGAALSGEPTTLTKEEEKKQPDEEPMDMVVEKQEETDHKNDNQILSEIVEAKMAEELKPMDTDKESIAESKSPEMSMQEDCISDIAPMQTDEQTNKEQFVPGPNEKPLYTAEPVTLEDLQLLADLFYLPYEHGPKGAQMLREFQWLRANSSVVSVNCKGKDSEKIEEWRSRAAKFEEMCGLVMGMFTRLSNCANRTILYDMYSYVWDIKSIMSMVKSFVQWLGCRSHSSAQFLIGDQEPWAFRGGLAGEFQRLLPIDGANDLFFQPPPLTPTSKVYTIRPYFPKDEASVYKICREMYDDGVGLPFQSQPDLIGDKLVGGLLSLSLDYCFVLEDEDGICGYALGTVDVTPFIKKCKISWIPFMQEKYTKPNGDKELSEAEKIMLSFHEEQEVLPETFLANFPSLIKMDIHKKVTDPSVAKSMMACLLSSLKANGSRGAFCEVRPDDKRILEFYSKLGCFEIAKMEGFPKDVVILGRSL
# Assay: OGA biochemical assay (inhibition of FM-GlcNAc hydrolysis, fluorescence)
# Conditions: FM-GlcNAc substrate; for Emax: read-out: Enzymatic Emax (%); for IC50: read-out: Enzymatic hOGA, pIC50 (converted)
# Source text: The assay is based on the inhibition of the hydrolysis of fluorescein mono-β-D-N-Acetyl-Glucosamine (FM-GlcNAc) (Mariappa et al. 2015, Biochem J 470:255) by the recombinant human Meningioma Expressed Antigen 5 (MGEA5), also referred to as O-GcNAcase (OGA). The hydrolysis FM-GlcNAc (Marker Gene technologies, cat #M1485) results in the formation of B-D-N-glucosamineacetate and fluorescein. The fluorescence of the latter can be measured at excitation wavelength 485 nm and emission wavelength 538 nm. An increase in enzyme activity results in an increase in fluorescence signal. Full length OGA enzyme was purchased at OnGene (cat #TP322411). The enzyme was stored in 25 mM Tris.HCl, pH 7.3, 100 mM glycine, 10% glycerol at −20° C. Thiamet G and GlcNAcStatin were tested as reference compounds (Yuzwa et al. 2008 Nature Chemical Biology 4:483; Yuzwa et al. 2012 Nature Chemical Biology 8:393). The assay was performed in 200 mM Citrate/phosphate buffer supplemented with 0.005% Tween-20. 35.6 g Na2HPO4 2H2O (Sigma, #C0759) were dissolved in 1 L water to obtain a 200 mM solution. 19.2 g citric acid (Merck, #1.06580) was dissolved in 1 L water to obtain a 100 mM solution. pH of the sodiumphosphate solution was adjusted with the citric acid solution to 7.2. The buffer to stop the reaction consists of a 500 mM Carbonate buffer, pH 11.0. 734 mg FM-GlcNAc were dissolved in 5.48 mL DMSO to obtain a 250 mM solution and was stored at −20° C. OGA was used at a 2 nM concentration and FM-GlcNAc at a 100 uM final concentration. Dilutions were prepared in assay buffer.
# 50 nl of a compound dissolved in DMSO was dispensed on Black Proxiplate TM 384 Plus Assay plates (Perkin Elmer, #6008269) and 3 μl fl-OGA enzyme mix added subsequently. Plates were pre-incubated for 60 min at room temperature and then 2 μl FM-GlcNAc substrate mix added. […] Plates were briefly centrifuged for 1 min at 1000 rpm and incubate at room temperature for 6 h. To stop the reaction 5 μl STOP buffer were added and plates centrifuge again 1 min at 1000 rpm. Fluorescence was quantified in the Thermo Scientific Fluoroskan Ascent or the PerkinElmer EnVision with excitation wavelength 485 nm and emission wavelength 538 nm.
# For analysis a best-fit curve is fitted by a minimum sum of squares method. From this an IC50 value and Hill coefficient was obtained. High control (no inhibitor) and low control (saturating concentrations of standard inhibitor) were used to define the minimum and maximum values.
Emax [%],IC50 [nM],Enzymatic Emax (%),Enzymatic hOGA; pIC50,Structure (SMILES)
92,1120,–,–,COc1ccc(F)c(C(C)N2CC[C@@H](Cc3cc(C)nc(C)c3)C2)n1 (mixture of isomers) [Product 98]
–,–,12,<5,COc1cccc([C@@H](C)N2CCC[C@H](Cc3cc(C)nc(C)c3)C2)n1 [Product 46]
16,> 10000,–,–,"CCOc1cccc(C(C)N2CCCC(Cc3cc(C)nc(C)c3)C2)n1 (single isomer, unassigned) [Product 50]"
90,1320,–,–,CC(=O)N(C)c1cc(CN2CCC[C@H](Cc3cc(C)nc(C)c3)C2)n[nH]1 [Product 10]
103,60.3,–,–,CC(=O)Nc1cc(C(C)N2CCCC(CNc3cc(C)nc(C)c3)C2)[nH]n1 (stereo not drawn) [Product 83]
63,6460,–,–,CC(=O)Nc1ccnc(CN2CCC[C@H](Cc3cc(C)nc(C)c3)C2)c1 [Product 31]
94,513,–,–,CC(=O)Nc1cc(CN2CCC[C@H](Cc3cc(C)nc(C)c3)C2)cnn1 [Product 62]
95,490,–,–,CC(=O)Nc1ccnc(C(C)N2CCC[C@H](Cc3cc(C)nc(C)c3)C2)c1 (stereo partly drawn) [Product 32]
84,2290,–,–,Cc1cc(C[C@H]2CCCN(C(C)c3cccc(C(F)(F)F)n3)C2)cc(C)n1 (mixture of isomers) [Product 61]
–,–,6,<5,COc1ccc(C)c([C@@H](C)N2CCC[C@H](Cc3cc(C)nc(C)c3)C2)n1 [Product 57]
98,229,–,–,COc1ccc(C(C)N2CCC[C@H](Cc3cc(C)nc(C)c3)C2)cn1 (mixture of isomers) [Product 52]
–,–,96,6.1,COc1ccc(C)c([C@H](C)N2CCC[C@H](Cc3cc(C)nc(C)c3)C2)n1 [Product 58]
98,219,–,–,CCOc1cccc(C(C)N2CCC[C@H](Cc3cc(C)nc(C)c3)C2)n1 (mixture of isomers) [Product 49]
–,–,65,5.27,CCOc1cc([C@@H](C)N2CCC[C@H](Cc3cc(C)nc(C)c3)C2)n[nH]1 [Product 15]
90,1350,–,–,CC(=O)Nc1cc(CN2CCC[C@H](Cc3cc(C)nc(C)c3)C2)n(C)n1 [Product 11]
–,–,100,6.61,CC(=O)Nc1cc([C@@H](C)N2CCC[C@H](Cc3cc(C)nc(C)c3)C2)n[nH]1 [Product 4]
–,–,10,<5,Cc1cc(C[C@H]2CCCN([C@H](C)c3nc(OC4CCC4)ccc3F)C2)cc(C)n1 [Product 54]
–,–,88,5.81,Cc1cc(C[C@H]2CCCN([C@@H](C)c3cccc(C4CC4)n3)C2)cc(C)n1 [Product 60]
99,234,–,–,CC(=O)Nc1cc(C(C)N2CCC[C@H](Cc3cc(C)nc(C)c3)C2)cnc1C (mixture of isomers) [Product 33]

# The remaining lines, values behind:
Structure (SMILES),Emax [%],IC50 [nM],Enzymatic Emax (%),Enzymatic hOGA; pIC50
COc1cccc(C(C)N2CC[C@H](Cc3ccncc3F)C2)n1 (mixture of isomers) [Product 146],33.1,> 10000,–,–
COc1cccc(C(C)N2CC[C@H](Cc3cncc(F)c3)C2)n1 (mixture of isomers) [Product 144],43.4,> 10000,–,–
COc1cccc(C(C)N2CC[C@H](Cc3cc(C)nc(C(F)(F)F)c3)C2)n1 (mixture of isomers) [Product 121],96,741,–,–
COc1ccc(F)c(C(C)N2CCC[C@H](Cc3cc(C)nc(C(F)(F)F)c3)C2)n1 (stereo partly drawn) [Product 71],104,89.1,–,–
COc1cccc([C@H](C)N2CCC[C@H](CNc3cc(C)nc(C(F)(F)F)c3)C2)n1 [Product 93],–,–,29,<5
COc1ccc(F)c([C@H](C)N2CC[C@H](Cc3ncc(F)cc3F)C2)n1 [Product 109],60,7590,–,–
COc1cccc(C(C)N2CC[C@H](Cc3cccnc3OC)C2)n1 (mixture of isomers) [Product 140],29.3,> 10000,–,–
CCOc1cc(C[C@H]2CCN(C(C)c3cccc(OC)n3)C2)ccn1 (mixture of isomers) [Product 125],76,4170,–,–
COc1ccc(C[C@H]2CCN(C(C)c3cccc(OC)n3)C2)nc1 (mixture of isomers) [Product 150],46,> 10000,–,–
COc1cccc(C(C)N2CC[C@H](Cc3cncc(C(F)(F)F)c3)C2)n1 (mixture of isomers) [Product 141],35.6,> 10000,–,–
CNC(=O)c1cc(C(C)N2CC[C@H](Cc3cc(C)nc(OC)c3)C2)n[nH]1 (mixture of isomers) [Product 101],75,3160,–,–
COc1cccc(C(C)N2CC[C@H](Cc3ccnc(OC(C)C)c3)C2)n1 (mixture of isomers) [Product 126],56,9550,–,–
CCOc1ncc(CN2CCC[C@H](Cc3cc(C)nc(C)c3)C2)s1 [Product 26],71,4570,–,–
COc1cccc(C(C)N2CC[C@H](Cc3ncccc3OC)C2)n1 (mixture of isomers) [Product 151],11.8,> 10000,–,–
COc1cccc(C(C)N2CC[C@H](Cc3cc(OC)nc(C(F)(F)F)c3)C2)n1 (mixture of isomers) [Product 123],86,2820,–,–
COc1cc(C[C@H]2CCN(C(C)c3cccc(OC)n3)C2)ccn1 (mixture of isomers) [Product 124],51,8710,–,–
COc1cccc(C(C)N2CCC[C@H](Cc3cc(OC)nc(C(F)(F)F)c3)C2)n1 (mixture of isomers) [Product 78],101,355,–,–
COc1cc(C(C)N2CC[C@@H](Cc3cc(C)nc(OC)c3)C2)c(F)cn1 (mixture of isomers) [Product 102],85,1700,–,–
COc1cc(C[C@H]2CCN(C(C)c3cccc(OC)n3)C2)cc(C)n1 (mixture of isomers) [Product 129],75,4370,–,–
COc1cc(OC2CCCN(C(C)c3nc(OC)ccc3F)C2)cc(C)n1 (stereo not drawn) [Product 81],99,562,–,–
COc1cccc(C(C)N2CC[C@H](Cc3cccnc3C(F)(F)F)C2)n1 (mixture of isomers) [Product 145],44.3,> 10000,–,–
CC(=O)Nc1cc(CN2CCCC(COc3cc(C)nc(C)c3)C2)n[nH]1 (stereo not drawn) [Product 119],92,1230,–,–
CC(=O)Nc1cc(C(C)N2CC[C@H](Oc3cc(C)nc(C)c3)C2)n[nH]1 (mixture of isomers) [Product 116],57,8320,–,–

# Reference: US20210300900A1, “OGA INHIBITOR COMPOUNDS” (Janssen Pharmaceutica NV, priority 2018, published 2021)
